Square brackets hold non-standard residues; d marks the D form. Peptide text beside a SMILES is read from it. * marks the point of attachment. NMeY = CN[C@@H](Cc1ccc(O)cc1)C(=O)O; αMeF = C[C@](N)(Cc1ccccc1)C(=O)O; Cha = N[C@@H](CC1CCCCC1)C(=O)O; Aib = CC(C)(N)C(=O)O; Bz = O=C(c1ccccc1)*
Columns and labels:
Type in all cases: cell-based
[1] = molecular target: T1, human glucagon R (Homo sapiens, UniProt P47871); assay: Agonist activity against human glucagon R, CRE-luciferase reporter assay in hGlucagonR/CRE-LUC/CHO-K1 cells
T1 construct: expressed in transfected cells; host or cells: CHO-K1 (CRE-LUC/CHO-K1), plasmid hGlucagonR/pMSRα-neo
T1 sequence (P47871 26-477): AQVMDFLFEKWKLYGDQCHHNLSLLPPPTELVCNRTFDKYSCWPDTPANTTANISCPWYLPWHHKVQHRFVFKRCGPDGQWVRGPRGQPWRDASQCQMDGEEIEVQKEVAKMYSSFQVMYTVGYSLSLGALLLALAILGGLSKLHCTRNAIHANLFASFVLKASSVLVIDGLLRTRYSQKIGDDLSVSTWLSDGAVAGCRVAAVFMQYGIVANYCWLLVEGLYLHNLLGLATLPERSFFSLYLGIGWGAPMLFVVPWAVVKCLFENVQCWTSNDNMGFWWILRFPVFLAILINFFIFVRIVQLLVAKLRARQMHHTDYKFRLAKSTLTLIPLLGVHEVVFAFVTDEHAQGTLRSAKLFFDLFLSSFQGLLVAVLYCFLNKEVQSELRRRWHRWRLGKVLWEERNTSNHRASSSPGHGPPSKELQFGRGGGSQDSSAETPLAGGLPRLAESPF
Text: (§1) Evaluation of agonist activity against human GIPR, human GLP-1R and human glucagon R using rise in intracellular cAMP concentration as index
(§2) The luciferase reporter gene having an upstream cAMP response sequence was introduced to CHO-K1 cells to construct CRE-LUC/CHO-K1 cells.
The human glucagon R gene having a sequence identical to the sequence of GenBank Accession No. NM_000160 was cloned into pMSRα-neo vector to prepare hGlucagonR/pMSRα-neo.
The plasmid hGlucagonR/pMSRα-neo obtained in (7) was introduced to the CRE-LUC/CHO-K1 cells obtained in (2) to obtain transformants. Next, a cell line induced to express luciferase, i.e., hGlucagonR/CRE-LUC/CHO-K1 cells, were selected from the obtained transformants by the addition of glucagon.
(§3) The hGIPR/CRE-LUC/CHO-K1 cells were inoculated at a cell density of 25 μL/well (5×10^4 cells/well) to a 384-well white plate (Corning), and cultured overnight in Ham F12 medium containing 10% fetal bovine serum, 100 U/mL penicillin and 100 μg/mL streptomycin in a CO2 incubator of 37° C. A medium containing a test compound was added at a concentration of 5 μL/well to the cells, and the resultant cells were incubated for 4 hours in a CO2 incubator of 37° C. to give the final concentration of 1 μM. PicaGene LT7.5 (Toyo Ink Co., Ltd.) was added thereto at a concentration of 30 μL/well, and the mixture was shaken with light shielded. After 30 minutes, the luciferase activity was measured using a plate reader Envision (PerkinElmer). The luciferase activity in the presence of 10 nM GIP was defined as 100%, and the luciferase activity from the addition of DMSO instead of the test compound was defined as 0%. The GIPR agonist activity was calculated with a rise in intracellular cAMP concentration as an index.
(§4) The glucagon R agonist activity was assayed in the same way as above using the hGlucagonR/CRE-LUC/CHO-K1 cells. The luciferase activity in the presence of 10 nM glucagon was defined as 100%, and the luciferase activity from the addition of DMSO instead of the test compound was defined as 0%. The glucagon agonist activity was calculated with a rise in intracellular cAMP concentration as an index.

[2] = molecular target: T2, human GLP-1R (Homo sapiens, UniProt P43220); assay: Agonist activity against human GLP-1R, CRE-luciferase reporter assay in hGLP-1R/CRE-luc/CHO-K1 cells
T2 construct: expressed in transfected cells; host or cells: CHO-K1, plasmids hGLP-1/pIRESneo3 and Cre-luc(Zeo)
T2 sequence (P43220 24-463): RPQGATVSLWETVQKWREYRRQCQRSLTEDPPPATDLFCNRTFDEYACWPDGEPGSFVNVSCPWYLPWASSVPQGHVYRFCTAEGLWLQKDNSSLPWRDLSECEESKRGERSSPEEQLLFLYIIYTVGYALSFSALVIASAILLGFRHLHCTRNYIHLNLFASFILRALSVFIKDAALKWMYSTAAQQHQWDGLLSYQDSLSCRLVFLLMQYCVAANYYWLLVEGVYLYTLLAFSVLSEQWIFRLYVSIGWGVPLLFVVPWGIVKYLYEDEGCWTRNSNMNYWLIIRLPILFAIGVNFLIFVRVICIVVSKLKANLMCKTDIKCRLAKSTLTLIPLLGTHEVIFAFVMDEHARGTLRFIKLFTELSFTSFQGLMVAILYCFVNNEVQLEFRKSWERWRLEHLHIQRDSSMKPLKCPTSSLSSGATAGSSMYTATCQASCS
Text: as §1
Four copies of the cAMP response sequence and the Zeocin resistance gene were introduced to pGL3(R2.2)-Basic Vector (Promega) to construct Cre-luc(Zeo) reporter plasmid.
The human GLP-1R gene having a sequence identical to the sequence of GenBank Accession No. NM_002062 was cloned into pIRESneo3 vector to prepare hGLP-1/pIRESneo3.
The Cre-luc(Zeo) obtained in (3) and the plasmid hGLP-1/pIRESneo3 obtained in (5) were introduced to CHO-K1 cells to obtain transformants. Next, a cell line induced to express luciferase, i.e., hGLP-1R/CRE-luc/CHO-K1 cells, were selected from the obtained transformants by the addition of GLP-1.
as §3
as §4, with “The GLP-1R” for “The glucagon R”, “the hGLP-1R/CRE-luc/CHO-K1” for “the hGlucagonR/CRE-LUC/CHO-K1”, “nM GLP-1” for “nM glucagon”, “The GLP-1R” for “The glucagon”

[3] = molecular target: T3, human GIPR (Homo sapiens, UniProt P48546); assay: Agonist activity against human GIPR, CRE-luciferase reporter assay (rise in intracellular cAMP) in hGIPR/CRE-LUC/CHO-K1 cells
T3 construct: expressed in transfected cells; host or cells: CHO-K1 (CRE-LUC/CHO-K1), plasmid hGIPR/pMSRα-neo
T3 sequence (P48546 22-466): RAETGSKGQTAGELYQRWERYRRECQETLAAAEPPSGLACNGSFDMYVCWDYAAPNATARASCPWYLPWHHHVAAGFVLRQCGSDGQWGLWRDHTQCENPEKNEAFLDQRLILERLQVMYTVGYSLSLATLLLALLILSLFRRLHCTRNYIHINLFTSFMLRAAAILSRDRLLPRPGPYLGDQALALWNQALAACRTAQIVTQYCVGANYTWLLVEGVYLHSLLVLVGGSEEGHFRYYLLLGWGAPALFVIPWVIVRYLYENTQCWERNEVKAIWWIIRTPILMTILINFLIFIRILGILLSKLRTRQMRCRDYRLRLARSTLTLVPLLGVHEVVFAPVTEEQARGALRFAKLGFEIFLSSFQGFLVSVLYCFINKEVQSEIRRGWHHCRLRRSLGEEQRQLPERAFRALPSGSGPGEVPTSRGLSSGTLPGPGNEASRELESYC
Text: as §1
The human GIPR gene having a sequence identical to the sequence of GenBank Accession No. U39231 was cloned into pMSRα-neo vector to prepare hGIPR/pMSRα-neo.
as §2
The plasmid hGIPR/pMSRα-neo obtained in (1) was introduced to the CRE-LUC/CHO-K1 cells obtained in (2) to obtain transformants. Next, a cell line induced to express luciferase, i.e., hGIPR/CRE-LUC/CHO-K1 cells, were selected from the obtained transformants by the addition of GIP.
as §3

Compound | EC50 [1] | EC50 [2] | EC50 [3]
CC(C)C[C@H](NC(=O)[C@H](CC(C)C)NC(=O)[C@H](Cc1c[nH]c2ccccc12)NC(=O)[C@H](CCCCN)NC(=O)[C@@H](NC(=O)[C@H](Cc1ccccc1)NC(=O)[C@H](CCC(=O)O)NC(=O)[C@H](C)NC(=O)[C@H](CCC(N)=O)NC(=O)[C@H](C)NC(=O)[C@H](CCC(N)=O)NC(=O)[C@H](CCCCN)NC(=O)[C@H](CC(=O)O)NC(=O)[C@H](CC(C)C)NC(=O)C(C)(C)NC(=O)[C@H](Cc1ccccc1)NC(=O)C(C)(C)NC(=O)[C@H](Cc1ccc(O)cc1)NC(=O)[C@H](CC(=O)O)NC(=O)[C@H](CO)NC(=O)[C@@H](NC(=O)[C@](C)(Cc1ccccc1)NC(=O)[C@@H](NC(=O)CNC(=O)[C@H](CCC(=O)O)NC(=O)C(C)(C)NC(=O)[C@@H](N)Cc1ccc(O)cc1)[C@@H](C)O)[C@@H](C)O)C(C)C)C(=O)N[C@@H](CCCCN)C(=O)NCC(=O)NCC(=O)N1CCC[C@H]1C(=O)N[C@@H](CO)C(=O)N[C@@H](CO)C(=O)NCC(=O)N[C@@H](C)C(=O)N1CCC[C@H]1C(=O)N1CCC[C@H]1C(=O)N1CCC[C@H]1C(=O)N[C@@H](CO)C(=O)N[C@@H](CCCCN)C(N)=O [Example 11] (H-Y[Aib]EGT[αMeF]TSDY[Aib]F[Aib]LDKQAQAEFVKWLLKGGPSSGAPPPSK-NH2) | > 1000 nM | 0.022 nM | 0.015 nM
CC[C@H](C)[C@H](NC(=O)C(C)(C)NC(=O)[C@H](Cc1ccc(O)cc1)NC(=O)[C@H](CC(=O)O)NC(=O)[C@H](CO)NC(=O)[C@@H](NC(=O)[C@](C)(Cc1ccccc1)NC(=O)[C@@H](NC(=O)CNC(=O)[C@H](CCC(=O)O)NC(=O)C(C)(C)NC(=O)[C@@H](N)Cc1ccc(O)cc1)[C@@H](C)O)[C@@H](C)O)C(=O)NC(C)(C)C(=O)N[C@@H](CC(C)C)C(=O)N[C@@H](CC(=O)O)C(=O)N[C@@H](CCCCN)C(=O)N[C@@H](CCC(N)=O)C(=O)N[C@@H](C)C(=O)N[C@@H](CCC(N)=O)C(=O)N[C@@H](C)C(=O)N[C@@H](CCC(=O)O)C(=O)N[C@@H](Cc1ccccc1)C(=O)N[C@H](C(=O)N[C@@H](CCCCN)C(=O)N[C@@H](Cc1c[nH]c2ccccc12)C(=O)N[C@@H](CC(C)C)C(=O)N[C@@H](CC(C)C)C(=O)N[C@@H](CCCCN)C(=O)NCC(=O)NCC(=O)N1CCC[C@H]1C(=O)N[C@@H](CO)C(=O)N[C@@H](CO)C(=O)NCC(=O)N[C@@H](C)C(=O)N1CCC[C@H]1C(=O)N1CCC[C@H]1C(=O)N1CCC[C@H]1C(=O)N[C@@H](CO)C(N)=O)C(C)C [Example 6] (H-Y[Aib]EGT[αMeF]TSDY[Aib]I[Aib]LDKQAQAEFVKWLLKGGPSSGAPPPS-NH2) | > 1000 nM | 0.016 nM | 0.0073 nM
CC[C@H](C)[C@H](NC(=O)C(C)(C)NC(=O)[C@H](Cc1ccc(O)cc1)NC(=O)[C@H](CC(=O)O)NC(=O)[C@H](CO)NC(=O)[C@@H](NC(=O)[C@](C)(Cc1ccccc1)NC(=O)[C@@H](NC(=O)CNC(=O)[C@H](CCC(=O)O)NC(=O)C(C)(C)NC(=O)[C@H](Cc1ccc(O)cc1)NC(=O)c1ccccc1)[C@@H](C)O)[C@@H](C)O)C(=O)NC(C)(C)C(=O)N[C@@H](CC(C)C)C(=O)N[C@@H](CC(=O)O)C(=O)N[C@@H](CCCCN)C(=O)N[C@@H](CCC(N)=O)C(=O)N[C@@H](C)C(=O)N[C@@H](CCC(N)=O)C(=O)N[C@@H](C)C(=O)N[C@@H](CCC(=O)O)C(=O)N[C@@H](Cc1ccccc1)C(=O)N[C@H](C(=O)N[C@@H](CCCCN)C(=O)N[C@@H](Cc1c[nH]c2ccccc12)C(=O)N[C@@H](CC(C)C)C(=O)N[C@@H](CC(C)C)C(=O)N[C@@H](CCCCN)C(=O)NCC(=O)NCC(=O)N1CCC[C@H]1C(=O)N[C@@H](CO)C(=O)N[C@@H](CO)C(=O)NCC(=O)N[C@@H](C)C(=O)N1CCC[C@H]1C(=O)N1CCC[C@H]1C(=O)N1CCC[C@H]1C(=O)N[C@@H](CO)C(=O)N[C@@H](CCCCN)C(N)=O)C(C)C [Example 19] (Bz-Y[Aib]EGT[αMeF]TSDY[Aib]I[Aib]LDKQAQAEFVKWLLKGGPSSGAPPPSK-NH2) | > 1000 nM | 0.037 nM | 0.024 nM
CC[C@H](C)[C@H](NC(=O)C(C)(C)NC(=O)[C@H](Cc1ccc(O)cc1)NC(=O)[C@H](CC(=O)O)NC(=O)[C@H](CO)NC(=O)[C@@H](NC(=O)[C@](C)(Cc1ccccc1)NC(=O)[C@@H](NC(=O)CNC(=O)[C@H](CCC(=O)O)NC(=O)C(C)(C)NC(=O)[C@@H](N)Cc1ccc(O)cc1)[C@@H](C)O)[C@@H](C)O)C(=O)N[C@@H](CC1CCCCC1)C(=O)N[C@@H](CC(C)C)C(=O)N[C@@H](CC(=O)O)C(=O)N[C@@H](CCCCN)C(=O)N[C@@H](CCC(N)=O)C(=O)N[C@@H](C)C(=O)N[C@@H](CCC(N)=O)C(=O)N[C@@H](C)C(=O)N[C@@H](CCC(=O)O)C(=O)N[C@@H](Cc1ccccc1)C(=O)N[C@H](C(=O)N[C@@H](CCCCN)C(=O)N[C@@H](Cc1c[nH]c2ccccc12)C(=O)N[C@@H](CC(C)C)C(=O)N[C@@H](CC(C)C)C(=O)N[C@@H](CCCCN)C(=O)NCC(=O)NCC(=O)N1CCC[C@H]1C(=O)N[C@@H](CO)C(=O)N[C@@H](CO)C(=O)NCC(=O)N[C@@H](C)C(=O)N1CCC[C@H]1C(=O)N1CCC[C@H]1C(=O)N1CCC[C@H]1C(=O)N[C@@H](CO)C(=O)N[C@@H](CCCCN)C(N)=O)C(C)C [Example 14] (H-Y[Aib]EGT[αMeF]TSDY[Aib]I[Cha]LDKQAQAEFVKWLLKGGPSSGAPPPSK-NH2) | > 1000 nM | 0.021 nM | 0.013 nM
CC[C@H](C)[C@H](NC(=O)C(C)(C)NC(=O)[C@H](Cc1ccc(O)cc1)NC(=O)[C@H](CC(=O)O)NC(=O)[C@H](CO)NC(=O)[C@@H](NC(=O)[C@](C)(Cc1ccccc1)NC(=O)[C@@H](NC(=O)CNC(=O)[C@H](CCC(=O)O)NC(=O)C(C)(C)NC(=O)[C@H](Cc1ccc(O)cc1)NC)[C@@H](C)O)[C@@H](C)O)C(=O)NC(C)(C)C(=O)N[C@@H](CC(C)C)C(=O)N[C@@H](CC(=O)O)C(=O)N[C@@H](CCCCN)C(=O)N[C@@H](CCC(N)=O)C(=O)N[C@@H](C)C(=O)N[C@@H](CCC(N)=O)C(=O)N[C@@H](C)C(=O)N[C@@H](CCC(=O)O)C(=O)N[C@@H](Cc1ccccc1)C(=O)N[C@H](C(=O)N[C@@H](CCCCN)C(=O)N[C@@H](Cc1c[nH]c2ccccc12)C(=O)N[C@@H](CC(C)C)C(=O)N[C@@H](CC(C)C)C(=O)N[C@@H](CCCCN)C(=O)NCC(=O)NCC(=O)N1CCC[C@H]1C(=O)N[C@@H](CO)C(=O)N[C@@H](CO)C(=O)NCC(=O)N[C@@H](C)C(=O)N1CCC[C@H]1C(=O)N1CCC[C@H]1C(=O)N1CCC[C@H]1C(=O)N[C@@H](CO)C(=O)N[C@@H](CCCCN)C(N)=O)C(C)C [Example 23] (H-[NMeY][Aib]EGT[αMeF]TSDY[Aib]I[Aib]LDKQAQAEFVKWLLKGGPSSGAPPPSK-NH2) | – | 0.016 nM | 0.016 nM

— patent US9200051B2, “Peptide compound” (TAKEDA PHARMACEUTICAL COMPANY LIMITED, priority 2013, dated 2015)
